{
  "source": "patent US20090298178A1",
  "about": "“GROWTH FACTORS FOR PRODUCTION OF DEFINITIVE ENDODERM” (priority 2008, published 2009)",
  "molecules": {"B1": {"name": "TGF-beta3: isoform of transforming growth factor beta (protein, UniProt P10600 301-412, looked up)", "Transforming growth factor …": "ALDTNYCFRNLEENCCVRPLYIDFRQDLGWKWVHEPKGYYANFCSGPCPYLRSADTTHSTVLGLYNTLNPEASASPCCVPQDLEPLTILYYVGRTPKVEQLSNMVVKSCKCS"}, "B2": {"name": "GDF3: TGF-beta family member also known as Vg-related gene 2 (protein, UniProt Q9NR23 251-364, looked up)", "Growth/differentiation factor …": "AAIPVPKLSCKNLCHRHQLFINFRDLGWHKWIIAPKGFMANYCHGECPFSLTISLNSSNYAFMQALMHAVDPEIPQAVCIPTKLSPISMLYQDNNDNVILRHYEDMVVDECGCG"}, "B3": {"name": "activin B: TGF-beta family growth factor (R&D Systems) (protein, UniProt P09529 293-407, looked up)", "Inhibin beta B chain": "GLECDGRTNLCCRQQFFIDFRLIGWNDWIIAPTGYYGNYCEGSCPAYLAGVPGSASSFHTAVVNQYRMRGLNPGTVNSCCIPTKLSTMSMLYFDDEYNIVKRDVPNMIVEECGCA"}},
  "key": {"[1]": {"tested_on": "hES cells (CyT49; passage 41)", "experiment": "Differentiation of hES cells to definitive endoderm (stage 1) with TGF-beta member growth factors, real-time quantitative PCR (Example 1)", "type": "cell-based, human", "settings": "for effectiveness for induction of definitive endoderm differentiation derived from hES cells: compared with activin A; for fold induction of SOX17 gene expression as compared to undifferentiated hESCs / fold induction of FOXA2 gene expression as compared to undifferentiated hESCs: 100 ng/ml factor, 75 ng/mL Wnt3a on first day, day 2 of differentiation; for fold induction of SOX17 gene expression as compared to undifferentiated hESCs: FIG. 2C; for efficiency in generating definitive endoderm cell populations: sufficient amounts, compared to Activin A and activin B", "text": "Human embryonic stem (hES) cells were differentiated in vitro to definitive endoderm (stage 1) for about 2-4 days substantially as described in D'Amour et al. 2006 Nat Biotechnol 24(11):1392-401 and U.S. Patent Application Publication Number 2007/0154984, which are herein incorporated in their entireties. Briefly, undifferentiated human embryonic stem (hES) cells were maintained on mouse embryo fibroblast feeder layers (Millipore, formerly Chemicon or Specialty Media) or on human serum coated plates (Valley Biomedical) in DMEM/F12 (Mediatech) supplemented with 20% KnockOut serum replacement (Invitrogen/Gibco), 1 mM nonessential amino acids (Invitrogen/Gibco), Glutamax (Invitrogen/Gibco), penicillin/streptomycin (Invitrogen/ Gibco), 0.55 mM 2-mercaptoethanol (Invitrogen/Gibco) and 4 ng/ml to 20 ng/mL recombinant human FGF2 (R&D Systems). Low dosages of Activin A (10-25 ng/ml, R&D Systems) were added to the growth culture medium to help maintain undifferentiated growth. Cultures were either manually passaged, or enzymatically passaged using 5 ug/mL dispase (Invitrogen/Gibco), or passaged using Accutase (Innovative Cell Technologies #AT104) at 1:4-1:15 split ratios every 3-7 days. Before initiating differentiation, hES cells were given a brief wash in PBS+/+ (PBS+/+ refers to PBS containing both calcuim and magnesium) (Mediatech).\nFour hES cell culture plates (CyT49; passage 41) were then differentiated in RPMI (Mediatech) supplemented with Glutamax, penicillin/streptomycin, and with either: i) 100 ng/mL activin A, ii) 100 ng/mL of activin B (R&D Systems), iii) 100 ng/mL of GDF8, or iv) 100 ng/mL of GDF11 (R&D Systems) and varying concentrations of defined FBS (HyClone). Additionally, 0.1% BSA (Invitrogen/Gibco) and 75 ng/mL Wnt3a (R&D Systems) were added on the first day (d0) of differentiation. FBS concentrations were 0% for the first 24 h and 0.2% for the second 24 h. Replicate samples were collected from each culture condition at 0, 24 and 48 hours after differentiation commenced and analyzed for relative gene expression using real-time quantitative PCR."}, "hES cells (CyT49)": {"tested_on": "hES cells (CyT49)", "experiment": "Further differentiation of definitive endoderm to pancreatic endoderm and endocrine cells, real-time PCR at day 9 (Example 2)", "type": "cell-based, human", "settings": "definitive endoderm produced with 100 ng/mL factor, compared with activin A, FIG. 3", "experimental": "(§1) Human ES cell cultures were maintained and differentiated substantially as described above in Example 1, and further differentiated to foregut endoderm (stage 2) and then onto pancreatic endoderm and pancreatic endocrine cells (stages 3 and 4). After 48 hours of differentiation to definitive endoderm (stage 1) the cells were briefly washed in PBS+/+ and then further differentiated in RPMI supplemented with 0.2% FBS, Insulin-Transferrin-Selenium (1:1000), Glutamax, penicillin/streptomycin, and 25 ng/mL KGF (R&D Systems) for 3 days. On the first day of stage 2, the culture also received TGF-beta inhibitor No. 4 (3-(6-Methylpyridin-2-yl)-4-(4-quinolyl)-1-phenylthiocarbamoyl-1H-pyrazole) at 2.5 uM (EMD Bioscience). After three days in stage 2 the cells were then differentiated for one day in DMEM with B27 supplement (1:100) containing all-trans retinoic acid (RA) at 0.2 uM and KAAD-cyclopamine at 0.25 uM. Following the single day of retinoid exposure, the cells were cultured in DMEM with B27 (1:100) containing noggin at 40 ng/ml. At day 9 of total differentiation, replicate samples were collected from each culture condition and analyzed for relative gene expression using real-time quantitative PCR."}, "hES cells": {"tested_on": "hES cells", "settings": "McLean et al. Stem Cells 25:29-38 2007; cited from earlier work"}, "[2]": {"tested_on": "hES cells (CyT49; passage 35)", "experiment": "Differentiation of hES cells to definitive endoderm with activin A plus Wnt3a or GSK3 inhibitors, real-time quantitative PCR at 48 hours (Example 4)", "type": "cell-based, human", "settings": "with 100 ng/mL activin A; inhibitor at 10 or 100 nM; FIG. 6A-B", "experimental": "Undifferentiated hES cells (CyT49; passage 35) were maintained substantially as described in Example 1 above. Ten hES cell culture plates were then differentiated in RPMI (Mediatech) supplemented with Glutamax, penicillin/streptomycin, and varying concentrations of defined FBS (HyClone). FBS concentrations were 0% for the first 24 h and 0.2% for the second 24 h. Additionally, 0.1% BSA (Invitrogen/Gibco) was added on the first day only. All plates received 100 ng/mL activin A for both days. […] Replicate samples were collected from each culture condition at 48 hours after differentiation commenced and analyzed for relative gene expression using real-time quantitative PCR."}, "[3]": {"tested_on": "hES cells (CyT49; passage 48)", "experiment": "Differentiation of hES cells with other TGF-beta family member proteins, real-time quantitative PCR (Example 3)", "type": "cell-based, human", "settings": "for CDX2 induction level, fold higher expression over that observed with the activin A treatment: GDF3 500 ng/ml, TGF-beta3 100 ng/mL, FIG. 4C", "experimental": "Undifferentiated human embryonic stem (hES) cells (CyT49; passage 48) were maintained substantially as described in Example 1 above. Seven hES cell culture plates were then differentiated in RPMI (Mediatech) supplemented with Glutamax, penicillin/streptomycin, and either: i) activin A (100 ng/ml), ii) TGF-beta1 (100 ng/ml), iii) TGF-beta3 (100 ng/mL), iv) TGF-beta2 (200 ng/ml), v) GDF3 (500 ng/ml), vi) GDF9 (4 ug/ml), or vii) GDF15 (2.5 ug/ml) and varying concentrations of defined FBS (HyClone). Additionally, 0.1% BSA (Invitrogen/Gibco) and 75 ng/mL Wnt3a (R&D Systems) were added on the first day (d0) of differentiation. FBS concentrations were 0% for the first 24 h and 0.2% for the second 24 h. Replicate samples were collected from each culture condition at 0, 24 and 48 hours after differentiation commenced and analyzed for relative gene expression using real-time quantitative PCR."}, "[4]": {"tested_on": "hES cells (CyT49; passage 48)", "experiment": "Further differentiation to pancreatic endoderm and endocrine cells, real-time PCR at 12 days (Example 3)", "type": "cell-based, human", "settings": "12 days of differentiation", "experimental": "as §1\nSuch conditions are described in Example 2 above. In this example, however, the stage 4 noggin treatment lasted for 6 days and replicate samples were taken for real-time PCR analysis at a total of 12 days of differentiation as compared to 9 days of differentiation in Example 2. […] Similarly, the pancreatic endoderm or endocrine cells expressing endocrine markers NKX2-2 and INS were typically not detected in the non-activin A treated plates (FIG. 5C-D). Stated another way, the activin A treated plates were 1200-fold or more higher in expression of these markers than the non-Activin A treated plates."}},
  "data": [
    {"molecule": "GDF11: TGF-beta family member with approximately 90% identity to myostatin", "values": [
      {"measurement": "effectiveness for induction of definitive endoderm differentiation derived from hES cells", "setting": "[1]; 100 ng/mL", "value": "as effective as activin A"},
      {"measurement": "fold induction of SOX17 gene expression as compared to undifferentiated hESCs", "setting": "[1]", "value": 1306, "unit": "fold"},
      {"measurement": "fold induction of FOXA2 gene expression as compared to undifferentiated hESCs", "setting": "[1]; FIG. 2D", "value": 382, "unit": "fold"},
      {"measurement": "efficiency in generating definitive endoderm cell populations", "setting": "[1]", "value": "more efficient compared to activin B"},
      {"measurement": "subsequent differentiation of definitive endoderm to pancreatic endoderm expressing PDX1 and PTF1A or endocrine cells expressing NKX2-2", "setting": "hES cells (CyT49)", "value": "as effective"}
    ]},
    {"molecule": "insulin: protein that binds to the insulin receptor and can induce signaling", "values": [
      {"measurement": "insulin concentration detrimental for the production of definitive endoderm cells from hES cells", "setting": "hES cells", "value": "≥ 0.2", "unit": "µg/mL"}
    ]},
    {"molecule": "COc1ccc(CNC(=O)Nc2ncc([N+](=O)[O-])s2)cc1", "note": "[GSK3 inhibitor No. 8]", "values": [
      {"measurement": "differentiation of hES cells to definitive endoderm", "setting": "[2]", "value": "Neither GSK3 inhibitor No. 9 (“BIO”) nor GSK3 inhibitor No. 8 (GVIII) at 10 or 100 nM resulted in substantial differentiation"}
    ]},
    {"molecule": "O=C1Nc2cc(Br)ccc2/C1=C1/Nc2ccccc2/C1=N\\O", "note": "[GSK3 inhibitor No. 9]", "values": [
      {"measurement": "differentiation of hES cells to definitive endoderm", "setting": "[2]", "value": "Neither GSK3 inhibitor No. 9 (“BIO”) nor GSK3 inhibitor No. 8 (GVIII) at 10 or 100 nM resulted in substantial differentiation"}
    ]},
    {"molecule": "GDF8: TGF-beta family member, also referred to as myostatin", "values": [
      {"measurement": "effectiveness for induction of definitive endoderm differentiation derived from hES cells", "setting": "[1]; 100 ng/mL", "value": "as effective as activin A"},
      {"measurement": "fold induction of SOX17 gene expression as compared to undifferentiated hESCs", "setting": "[1]", "value": 1324, "unit": "fold"},
      {"measurement": "fold induction of FOXA2 gene expression as compared to undifferentiated hESCs", "setting": "[1]; FIG. 2D", "value": 438, "unit": "fold"},
      {"measurement": "efficiency in generating definitive endoderm cell populations", "setting": "[1]", "value": "more efficient compared to activin B"},
      {"measurement": "subsequent differentiation of definitive endoderm to pancreatic endoderm expressing PDX1 and PTF1A or endocrine cells expressing NKX2-2", "setting": "hES cells (CyT49)", "value": "as effective"}
    ]},
    {"molecule": "activin A: TGF-beta family growth factor used at 100 ng/mL to produce definitive endoderm", "values": [
      {"measurement": "definitive endoderm production as indicated by induction of SOX17 and CER1 gene expression", "setting": "[3]; activin A 100 ng/ml, other ligands 100 ng/ml to 4 ug/ml, 75 ng/mL Wnt3a on first day, FIG. 4A-B", "value": "definitive endoderm was produced only in the activin A treatment condition"},
      {"measurement": "expression of endocrine markers NKX2-2 and INS, fold higher than the non-Activin A treated plates", "setting": "[4]; FIG. 5C-D", "value": "≥ 1200", "unit": "fold"},
      {"measurement": "production of pancreatic endoderm and endocrine cell types as indicated by induction of PDX1, PTF1A, NKX2-2 and INS gene expression", "setting": "[4]; FIGS. 5A-D", "value": "produced only in the activin A treatment condition"},
      {"measurement": "PDX1 expression level, fold higher in the presence of activin A as compared to GDF15", "setting": "[4]; comparator GDF15, FIG. 5A", "value": "14,497 fold"},
      {"measurement": "PDX1 expression level, fold higher in the presence of activin A as compared to TGF-beta1", "setting": "[4]; comparator TGF-beta1, FIG. 5A", "value": 1413, "unit": "fold"}
    ]},
    {"molecule": "B1", "values": [
      {"measurement": "CDX2 induction level, fold higher expression over that observed with the activin A treatment", "setting": "[3]", "value": "2,667 fold"}
    ]},
    {"molecule": "B2", "values": [
      {"measurement": "CDX2 induction level, fold higher expression over that observed with the activin A treatment", "setting": "[3]", "value": 900, "unit": "fold"}
    ]},
    {"molecule": "B3", "values": [
      {"measurement": "expression of ISL1 as compared to activin A treated cultures", "setting": "[1]; 100 ng/mL, FIG. 2B, indicates mesoderm differentiation", "value": "higher expression"},
      {"measurement": "FOXA2 induction (in words)", "setting": "[1]; 100 ng/mL, FIG. 2D", "value": "lower"},
      {"measurement": "subsequent differentiation of definitive endoderm to pancreatic endoderm expressing PDX1 and PTF1A or endocrine cells expressing NKX2-2", "setting": "hES cells (CyT49)", "value": "less effective"}
    ]}
  ]
}
